Laboratory results as given in the NIST ThermoML archive (doi:10.1016/j.jct.2018.12.018).
Where “and” joins values, the source holds several entries; their conditions need not be identical. Equal values may be shown once.

Experiment: xn = mol fraction of the nth substance listed
Conditions: Liquid, x1 = 0.617; for speed of sound: Frequency=3 MHz, Single path-length method; for mass density: Vibrating tube method

CCOC(F)(F)C(F)(C(F)(F)F)C(F)(F)F [nonafluoroisobutyl ethyl ether] + CCOC(F)(F)C(F)(F)C(F)(F)C(F)(F)F
Conditions | mass density | speed of sound [m/s]
293.15 K, 100 kPa | 1433.9 kg/m3 and 1434.27 kg/m3 | 637.83
293.15 K, 1000 kPa | 1436.6 kg/m3 | –
293.15 K, 5000 kPa | 1448.2 kg/m3 | –
293.15 K, 10000 kPa | 1461.3 kg/m3 | –
293.15 K, 15000 kPa | 1473.4 kg/m3 | –
293.15 K, 20000 kPa | 1484.5 kg/m3 | –
293.15 K, 25000 kPa | 1494.8 kg/m3 | –
293.15 K, 30000 kPa | 1504.7 kg/m3 | –
293.15 K, 35000 kPa | 1513.9 kg/m3 | –
293.15 K, 40000 kPa | 1522.5 kg/m3 | –
293.15 K, 45000 kPa | 1530.8 kg/m3 | –
293.15 K, 50000 kPa | 1538.7 kg/m3 | –
293.15 K, 55000 kPa | 1546.3 kg/m3 | –
293.15 K, 60000 kPa | 1553.5 kg/m3 | –
293.15 K, 65000 kPa | 1560.5 kg/m3 | –
293.15 K, 70000 kPa | 1567.2 kg/m3 | –
293.15 K, 80000 kPa | 1580 kg/m3 | –
293.15 K, 90000 kPa | 1591.9 kg/m3 | –
293.15 K, 100000 kPa | 1603.1 kg/m3 | –
293.15 K, 110000 kPa | 1613.9 kg/m3 | –
293.15 K, 120000 kPa | 1624 kg/m3 | –
293.15 K, 130000 kPa | 1633.7 kg/m3 | –
293.15 K, 140000 kPa | 1642.8 kg/m3 | –
298.15 K, 100 kPa | 1423.06 kg/m3 and 1422.8 kg/m3 | 622.13
298.15 K, 1000 kPa | 1425.6 kg/m3 | –
298.15 K, 5000 kPa | 1437.7 kg/m3 | –
298.15 K, 10000 kPa | 1451.5 kg/m3 | –
298.15 K, 15000 kPa | 1463.9 kg/m3 | –
298.15 K, 20000 kPa | 1475.4 kg/m3 | –
298.15 K, 25000 kPa | 1486.2 kg/m3 | –
298.15 K, 30000 kPa | 1496.1 kg/m3 | –
298.15 K, 35000 kPa | 1505.7 kg/m3 | –
298.15 K, 40000 kPa | 1514.5 kg/m3 | –
298.15 K, 45000 kPa | 1523 kg/m3 | –
298.15 K, 50000 kPa | 1531.1 kg/m3 | –
298.15 K, 55000 kPa | 1538.8 kg/m3 | –
298.15 K, 60000 kPa | 1546.3 kg/m3 | –
298.15 K, 65000 kPa | 1553.4 kg/m3 | –
298.15 K, 70000 kPa | 1560.2 kg/m3 | –
298.15 K, 80000 kPa | 1573.2 kg/m3 | –
298.15 K, 90000 kPa | 1585.4 kg/m3 | –
298.15 K, 100000 kPa | 1596.9 kg/m3 | –
298.15 K, 110000 kPa | 1607.6 kg/m3 | –
298.15 K, 120000 kPa | 1618 kg/m3 | –
298.15 K, 130000 kPa | 1627.8 kg/m3 | –
298.15 K, 140000 kPa | 1637.2 kg/m3 | –
303.15 K, 100 kPa | 1411.62 kg/m3 | 606.46
313.15 K, 100 kPa | 1388.53 kg/m3 and 1388.4 kg/m3 | 575.75
313.15 K, 1000 kPa | 1391.8 kg/m3 | –
313.15 K, 5000 kPa | 1405.6 kg/m3 | –
313.15 K, 10000 kPa | 1421.1 kg/m3 | –
313.15 K, 15000 kPa | 1435.1 kg/m3 | –
313.15 K, 20000 kPa | 1447.8 kg/m3 | –
313.15 K, 25000 kPa | 1459.5 kg/m3 | –
313.15 K, 30000 kPa | 1470.6 kg/m3 | –
313.15 K, 35000 kPa | 1480.8 kg/m3 | –
313.15 K, 40000 kPa | 1490.3 kg/m3 | –
313.15 K, 45000 kPa | 1499.5 kg/m3 | –
313.15 K, 50000 kPa | 1508.1 kg/m3 | –
313.15 K, 55000 kPa | 1516.4 kg/m3 | –
313.15 K, 60000 kPa | 1524.3 kg/m3 | –
313.15 K, 65000 kPa | 1531.9 kg/m3 | –
313.15 K, 70000 kPa | 1539.2 kg/m3 | –
313.15 K, 80000 kPa | 1552.9 kg/m3 | –
313.15 K, 90000 kPa | 1565.7 kg/m3 | –
313.15 K, 100000 kPa | 1577.6 kg/m3 | –
313.15 K, 110000 kPa | 1589 kg/m3 | –
313.15 K, 120000 kPa | 1599.7 kg/m3 | –
313.15 K, 130000 kPa | 1610 kg/m3 | –
313.15 K, 140000 kPa | 1619.7 kg/m3 | –
323.15 K, 100 kPa | 1365.15 kg/m3 | 545.46
333.15 K, 100 kPa | 1341.02 kg/m3 and 1340.7 kg/m3 | 515.64
333.15 K, 1000 kPa | 1344.8 kg/m3 | –
333.15 K, 5000 kPa | 1361.6 kg/m3 | –
333.15 K, 10000 kPa | 1380.1 kg/m3 | –
333.15 K, 15000 kPa | 1396.3 kg/m3 | –
333.15 K, 20000 kPa | 1410.8 kg/m3 | –
333.15 K, 25000 kPa | 1424.2 kg/m3 | –
333.15 K, 30000 kPa | 1436.4 kg/m3 | –
333.15 K, 35000 kPa | 1447.8 kg/m3 | –
333.15 K, 40000 kPa | 1458.5 kg/m3 | –
333.15 K, 45000 kPa | 1468.6 kg/m3 | –
333.15 K, 50000 kPa | 1478 kg/m3 | –
333.15 K, 55000 kPa | 1487 kg/m3 | –
333.15 K, 60000 kPa | 1495.5 kg/m3 | –
333.15 K, 65000 kPa | 1503.7 kg/m3 | –
333.15 K, 70000 kPa | 1511.5 kg/m3 | –
333.15 K, 80000 kPa | 1526.3 kg/m3 | –
333.15 K, 90000 kPa | 1540 kg/m3 | –
333.15 K, 100000 kPa | 1552.7 kg/m3 | –
333.15 K, 110000 kPa | 1564.7 kg/m3 | –
333.15 K, 120000 kPa | 1576 kg/m3 | –
333.15 K, 130000 kPa | 1586.8 kg/m3 | –
333.15 K, 140000 kPa | 1597.2 kg/m3 | –
353.15 K, 1000 kPa | 1295.2 kg/m3 | –
353.15 K, 5000 kPa | 1316.1 kg/m3 | –
353.15 K, 10000 kPa | 1338.1 kg/m3 | –
353.15 K, 15000 kPa | 1357.1 kg/m3 | –
353.15 K, 20000 kPa | 1373.9 kg/m3 | –
353.15 K, 25000 kPa | 1388.9 kg/m3 | –
353.15 K, 30000 kPa | 1402.6 kg/m3 | –
353.15 K, 35000 kPa | 1415.3 kg/m3 | –
353.15 K, 40000 kPa | 1426.8 kg/m3 | –
353.15 K, 45000 kPa | 1437.9 kg/m3 | –
353.15 K, 50000 kPa | 1448.2 kg/m3 | –
353.15 K, 55000 kPa | 1457.9 kg/m3 | –
353.15 K, 60000 kPa | 1467.2 kg/m3 | –
353.15 K, 65000 kPa | 1475.9 kg/m3 | –
353.15 K, 70000 kPa | 1484.5 kg/m3 | –
353.15 K, 80000 kPa | 1500.2 kg/m3 | –
353.15 K, 90000 kPa | 1514.8 kg/m3 | –
353.15 K, 100000 kPa | 1528.3 kg/m3 | –
353.15 K, 110000 kPa | 1541.1 kg/m3 | –
353.15 K, 120000 kPa | 1553 kg/m3 | –
353.15 K, 130000 kPa | 1564.3 kg/m3 | –
353.15 K, 140000 kPa | 1575.1 kg/m3 | –
373.15 K, 1000 kPa | 1242.1 kg/m3 | –
373.15 K, 5000 kPa | 1268.4 kg/m3 | –
373.15 K, 10000 kPa | 1295.1 kg/m3 | –
373.15 K, 15000 kPa | 1317.3 kg/m3 | –
373.15 K, 20000 kPa | 1336.2 kg/m3 | –
373.15 K, 25000 kPa | 1353.3 kg/m3 | –
373.15 K, 30000 kPa | 1368.8 kg/m3 | –
373.15 K, 35000 kPa | 1382.9 kg/m3 | –
373.15 K, 40000 kPa | 1395.6 kg/m3 | –
373.15 K, 45000 kPa | 1407.7 kg/m3 | –
373.15 K, 50000 kPa | 1418.8 kg/m3 | –
373.15 K, 55000 kPa | 1429.4 kg/m3 | –
373.15 K, 60000 kPa | 1439.5 kg/m3 | –
373.15 K, 65000 kPa | 1448.9 kg/m3 | –
373.15 K, 70000 kPa | 1457.9 kg/m3 | –
373.15 K, 80000 kPa | 1474.7 kg/m3 | –
373.15 K, 90000 kPa | 1490.2 kg/m3 | –
373.15 K, 100000 kPa | 1504.5 kg/m3 | –
373.15 K, 110000 kPa | 1517.9 kg/m3 | –
373.15 K, 120000 kPa | 1530.5 kg/m3 | –
373.15 K, 130000 kPa | 1542.3 kg/m3 | –
373.15 K, 140000 kPa | 1553.7 kg/m3 | –
393.15 K, 1000 kPa | 1183.9 kg/m3 | –
393.15 K, 5000 kPa | 1218.3 kg/m3 | –
393.15 K, 10000 kPa | 1250.8 kg/m3 | –
393.15 K, 15000 kPa | 1277 kg/m3 | –
393.15 K, 20000 kPa | 1299.1 kg/m3 | –
393.15 K, 25000 kPa | 1318.3 kg/m3 | –
393.15 K, 30000 kPa | 1335.4 kg/m3 | –
393.15 K, 35000 kPa | 1350.9 kg/m3 | –
393.15 K, 40000 kPa | 1365.1 kg/m3 | –
393.15 K, 45000 kPa | 1378.1 kg/m3 | –
393.15 K, 50000 kPa | 1390.2 kg/m3 | –
393.15 K, 55000 kPa | 1401.6 kg/m3 | –
393.15 K, 60000 kPa | 1412.4 kg/m3 | –
393.15 K, 65000 kPa | 1422.5 kg/m3 | –
393.15 K, 70000 kPa | 1432.1 kg/m3 | –
393.15 K, 80000 kPa | 1450 kg/m3 | –
393.15 K, 90000 kPa | 1466.2 kg/m3 | –
393.15 K, 100000 kPa | 1481.5 kg/m3 | –
393.15 K, 110000 kPa | 1495.5 kg/m3 | –
393.15 K, 120000 kPa | 1508.7 kg/m3 | –
393.15 K, 130000 kPa | 1521.1 kg/m3 | –
393.15 K, 140000 kPa | 1532.1 kg/m3 | –
